In ChEMBL document CHEMBL4428086, “Quassinoids: Viral protein R inhibitors from Picrasma javanica bark collected in Myanmar for HIV infection” (Bioorg Med Chem Lett, 2016):

How the values were obtained:
Type in all cases: cell-based
HeLa = assay: Cytotoxicity against human TREx-HeLa cells assessed as cell viability at 2.5 uM after 48 hrs by WST-8 assay
[1] = tested on: Human immunodeficiency virus 1; assay: Inhibition of c-myc and His6-tagged full length HIV1 NL4-3 Vpr transfected in human TREx-HeLa cells assessed as cell proliferation at 1.25 uM after 48 hrs in presence of tetracycline by WST-8 assay (reference value: 100 +/- 1%); set-up: scale not given: the % may be the effect or the level left
[2] = tested on: Human immunodeficiency virus 1; assay: Inhibition of c-myc and His6-tagged full length HIV1 NL4-3 Vpr transfected in human TREx-HeLa cells assessed as cell proliferation at 2.5 uM after 48 hrs in presence of tetracycline by WST-8 assay (reference value: 100 +/- 1%); set-up: scale not given: the % may be the effect or the level left
[3] = tested on: Human immunodeficiency virus 1; assay: Inhibition of c-myc and His6-tagged full length HIV1 NL4-3 Vpr transfected in human TREx-HeLa cells assessed as cell proliferation at 5 uM after 48 hrs in presence of tetracycline by WST-8 assay (reference value: 100 +/- 1%); set-up: scale not given: the % may be the effect or the level left
[4] = tested on: Human immunodeficiency virus 1; assay: Inhibition of c-myc and His6-tagged full length HIV1 NL4-3 Vpr transfected in human TREx-HeLa cells assessed as cell proliferation at 1.25 uM after 48 hrs in presence of tetracycline by WST-8 assay

Row | SMILES | Activity (HeLa) | Activity [1] | Activity [2] | Activity [3] | inhibition [4]
1 | COC1=CC[C@@H]2C[C@H]3OC(O)C[C@H]4C(C)=C(OC)C(=O)[C@H]([C@@]2(C)C1=O)[C@@]34C (stereo not given in full) | Non-Toxic | 170% | 174% | 178% | 
2 | COC1=CC(=O)[C@@H]2C[C@H]3OC(=O)C[C@H]4C(C)=C(OC)C(=O)[C@H]([C@@]2(C)C1=O)[C@@]34C | Non-Toxic | 117% | 155% | 155% | 
3 | COC1=C(CO)[C@@H]2CC(=O)O[C@@H]3C[C@H]4CC[C@H](O)C(=O)[C@]4(C)[C@@H](C1=O)[C@@]32C | Non-Toxic | 102% | 137% | 135% | 
4 | COC1=CC[C@@H]2C[C@H]3OC(=O)C=C4C(C)=C(OC)C(=O)[C@H]([C@@]2(C)C1=O)[C@]43C | Non-Toxic | 175% | 214% | 216% | Dose-dependent effect
5 | COC1=CC[C@@H]2C[C@H]3OC(=O)C[C@H]4C(C)=C(OC)C(=O)[C@H]([C@@]2(C)C1=O)[C@@]34C | Non-Toxic | 157% | 159% | 163% | 
6 | COC1=CC[C@@H]2C[C@H]3OC(=O)C[C@H]4C(C=O)=C(OC)C(=O)[C@H]([C@@]2(C)C1=O)[C@@]34C | Non-Toxic | 131% | 153% | 152% | 
7 | COc1c(C=O)c(O)cc2c1C(=O)c1ccccc1C2=O [DAMNACANTHAL] | Non-Toxic | 203% | 218% | 219% | 
8 | COC1=C(C)[C@@H]2CC(=O)O[C@@H]3C[C@H]4CC[C@H](O)C(=O)[C@]4(C)[C@@H](C1=O)[C@@]32C | Non-Toxic | 156% | 156% | 158% | 
9 | COC1=CC[C@@H]2C[C@H]3OC(=O)C=C4C(CO)=C(OC)C(=O)[C@H]([C@@]2(C)C1=O)[C@]43C | Non-Toxic | 132% | 140% | 141% | 
10 | COC1=C(OC)C(=O)[C@@]2(C)[C@H](C1)C[C@H]1OC(=O)C[C@H]3C(C)=C(OC)C(=O)[C@H]2[C@@]13C | Non-Toxic | 112% | 136% | 134% | 
11 | COC1=C(C)[C@@H]2CC(=O)O[C@@H]3C[C@H]4CC[C@H](OC)C(=O)[C@]4(C)[C@@H](C1=O)[C@@]32C | Non-Toxic | 165% | 168% | 173% | 
12 | COC1=C(C)[C@]2(O)CC(=O)O[C@@H]3C[C@H]4CC[C@H](O)C(=O)[C@]4(C)[C@@H](C1=O)[C@@]32C | Non-Toxic | 162% | 166% | 170% | 
13 | COC1=C(OC)C(=O)[C@@]2(C)[C@H](C1)C[C@H]1OC(=O)C[C@@]3(O)C(C)=C(OC)C(=O)[C@H]2[C@@]13C | Non-Toxic | 141% | 138% | 139% | 
14 | COC1=C[C@@H](O)[C@@H]2C[C@H]3OC(=O)C[C@H]4C(C)=C(OC)C(=O)[C@H]([C@@]2(C)C1=O)[C@@]34C | Non-Toxic | 140% | 138% | 141% | 
15 | COC1=CC[C@@H]2C[C@H]3OC(=O)C[C@H]4C(CO)=C(OC)C(=O)[C@H]([C@@]2(C)C1=O)[C@@]34C | Non-Toxic | 148% | 147% | 150% | 
16 | COC1=C(OC)C(=O)[C@@]2(C)[C@H](C1)C[C@H]1OC(=O)C[C@H]3C(CO)=C(OC)C(=O)[C@H]2[C@@]13C | Non-Toxic | 139% | 126% | 127% | 
